# Assay results from patent publication US9556154B2, “Pyrrole-substituted indolone derivative, preparation method therefor, composition comprising same and use thereof” (SHIJIAZHUANG YILING PHARMACEUTICAL CO., LTD., priority 2014, dated 2017).
# “Also recorded” adds a separate entry of the source. Where two headings read alike, the source gives them in different places.
# Legend:
# [1] = tested on: HUVEC; test: Cytotoxicity to HUVEC (MTS); format: cell-based, Human; details: for TI = CC50/EC50: HUVEC; for Cytotoxicity to HUVEC compared with sunitinib: in words
# Procedure: (§1) Assays for cytotoxicity: the above HUVECs were cultured in an F-12K culture medium containing 10% fetal bovine serum (FBS), 100 U/mL penicillin, 100 µg/mL streptomycin, 30 ug/mL ECGS, and 18 u/mL heparin. The HUVECs growing in the exponential phase were digested with pancreatin, and was adjust to have an appropriate level of cell density by using an F-12K complete medium containing 5% FBS, then 150 μL cells were inoculated into a 96-well plate at 3000 cells/well. […] After the cells were further cultured for 72 h, 20 μL MTS and 1 μL PMS were added to each well. 1-2 hours later, OD490 was measured, with OD650 as a reference. A dose-effect curve was drawn using the GraphPad Prism software, and half cytotoxic concentration (CC50) was calculated. The therapeutic index (TI) of the test compound on HUVECs was calculated as TI=CC50/EC50.
# [2] = Cytotoxicity to HUVEC (MTS); format: cell-based, Human; details: human, HUVEC cells; 72 h
# Procedure: as §1
# [3] = tested on: HUVEC; test: Inhibitory activity on VEGF-induced in vitro proliferation of HUVEC (MTS); format: cell-based; details: Homo sapiens, 72 h, read-out: EC50, activity on VEGF-induced in vitro proliferation of HUVEC
# Procedure: Assays for inhibitory activity on VEGF-induced proliferation of Human umbilical veins […] cell (HUVEC) line: HUVECs were cultured in F-12K containing 10% FBS, 18 u/mL heparin and 30 µg/mL ECGS, and HUVECs at 4-8 passages were selected for the experiment. The cells were digested with pancreatin, re-suspended in culture media (1×10^5/mL), and were added to a 96-well plate with 100 μL/well, for overnight adherent culturing. The culture was replaced with an F-12K culture solution containing 5% FBS and the cells were cultured for 24 h. […] A 0.1% FBS F-12K culture solution containing VEGF165 at a final concentration of 30 ng/ml or the vehicle (DMSO) was added and the cells were cultured under induction for 72 h. The culture solution was removed by pipetting, and 120 μL MTS assay solution was added to each well, which was incubated at 37° C. The OD490 was read. The group treated with a 5% FBS F-12K culture solution served as the negative control. VEGF-stimulated growth value was obtained by subtracting the OD of the negative control group from the OD of the VEGF165-stimulated group, and used for calculation of inhibition. A dose-effect curve was drawn using the GraphPad Prism software, and half effective concentration (EC50) was calculated.
# [4] = tested on: MV-4-11 cell line; test: Inhibitory activity on proliferation of human-derived MV-4-11 tumor cell line (MTS); format: cell-based; details: for IC50: Homo sapiens, MV4-11, 72 h, read-out: IC50, in vitro proliferation of MV-4-11 cell line; for Maximum inhibition: MV-4-11, 72 h
# Description: Human-derived acute leukemia cell line MV-4-11 is a cell line having mutation(s) in Flt-3.
# [5] = target: KDR (VEGF receptor) tyrosine kinase (Homo sapiens, UniProt P35968); test: In vitro assay of biochemical activity on KDR tyrosine kinase (HTRF); details: read-out: In vitro inhibitory activity on KDR, IC50
# Procedure: In vitro inhibitory activity of the compounds on KDR (VEGF receptor) tyrosine kinase was assayed by the HTRF (homogeneous time-resolved fluorescence) method. […] 10 μl SA-XL665 and a TK antibody were added to each well, which was incubated at room temperature for 1 h and read with Synergy2.
# [6] = tested on: MV-4-11 transplanted tumor; test: In vivo inhibition on MV-4-11 transplanted tumor in nude mice; design: species or system Balb/c nude mice; details: for BW (body weight) D0 / TV (tumor volume) D0: D0, 80 mg/kg intragastric once per day; for BW (body weight) D0 / BW (body weight) D21: in g (unit assumed); for TV (tumor volume) D0 / TV (tumor volume) D21: in mm³; for BW (body weight) D21 / TV (tumor volume) D21: D21, 80 mg/kg intragastric once per day
# Procedure: MV-4-11 cells were cultured to proliferate in vitro, and the cells growing in the exponential phase were harvested and re-suspended in a serum-free EMEM culture medium. The cell suspension was subcutaneously injected by a syringe into the axillary cavity of the right forelimb of male Balb/c nude mice. The animals and growth of transplanted tumors were observed regularly. […] During the administration period, the diameter of tumors and body weight (BW) of animals were measured, and the living status of animals was monitored. The experiment was finished 3 weeks after administration, and the animals were sacrificed with CO2 and subjected to autopsy.
# [7] = day 21, 80 mg/kg intragastric, in words
# Chain of KDR (VEGF receptor) tyrosine kinase (P35968 20-1356): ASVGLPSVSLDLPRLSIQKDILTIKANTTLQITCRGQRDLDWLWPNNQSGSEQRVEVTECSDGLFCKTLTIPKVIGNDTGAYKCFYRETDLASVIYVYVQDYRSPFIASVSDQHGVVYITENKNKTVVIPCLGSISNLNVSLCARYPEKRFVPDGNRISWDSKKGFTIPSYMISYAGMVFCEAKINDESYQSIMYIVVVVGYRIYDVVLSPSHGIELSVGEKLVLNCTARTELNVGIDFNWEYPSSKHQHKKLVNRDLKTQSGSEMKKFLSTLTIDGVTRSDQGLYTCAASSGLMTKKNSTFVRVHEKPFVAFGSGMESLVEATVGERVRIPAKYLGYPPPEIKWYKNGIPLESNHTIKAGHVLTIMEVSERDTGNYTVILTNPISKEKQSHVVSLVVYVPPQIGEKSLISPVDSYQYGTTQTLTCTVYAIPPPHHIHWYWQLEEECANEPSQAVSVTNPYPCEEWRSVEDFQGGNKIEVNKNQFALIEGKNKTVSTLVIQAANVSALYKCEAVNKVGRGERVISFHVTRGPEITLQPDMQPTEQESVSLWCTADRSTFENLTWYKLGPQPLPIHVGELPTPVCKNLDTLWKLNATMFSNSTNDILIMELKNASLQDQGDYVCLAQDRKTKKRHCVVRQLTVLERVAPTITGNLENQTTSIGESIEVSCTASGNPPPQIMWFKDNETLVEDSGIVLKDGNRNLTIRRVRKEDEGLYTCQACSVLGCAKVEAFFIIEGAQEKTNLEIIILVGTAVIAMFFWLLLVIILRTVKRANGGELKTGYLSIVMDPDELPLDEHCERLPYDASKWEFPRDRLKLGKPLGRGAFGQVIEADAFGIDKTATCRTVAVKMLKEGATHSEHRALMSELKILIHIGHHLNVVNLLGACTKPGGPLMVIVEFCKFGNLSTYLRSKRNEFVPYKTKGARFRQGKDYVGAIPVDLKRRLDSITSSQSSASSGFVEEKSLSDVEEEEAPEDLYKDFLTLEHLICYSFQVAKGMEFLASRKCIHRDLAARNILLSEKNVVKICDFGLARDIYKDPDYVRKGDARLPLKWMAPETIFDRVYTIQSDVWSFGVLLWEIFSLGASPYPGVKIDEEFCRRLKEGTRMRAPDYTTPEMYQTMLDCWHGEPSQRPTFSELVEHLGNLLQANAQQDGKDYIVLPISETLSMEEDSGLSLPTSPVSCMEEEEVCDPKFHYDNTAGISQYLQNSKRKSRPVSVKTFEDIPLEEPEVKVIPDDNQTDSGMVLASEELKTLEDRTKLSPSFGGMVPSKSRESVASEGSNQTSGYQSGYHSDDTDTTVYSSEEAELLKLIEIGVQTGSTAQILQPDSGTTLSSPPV
Structure (SMILES),TI = CC50/EC50 [1],Cytotoxicity to HUVEC compared with sunitinib [1],CC50 at 72 h [2],EC50 ([3]; VEGF165 30 ng/ml),IC50 [4],Maximum inhibition [4],IC50 [5],BW (body weight) D0 [6],TV (tumor volume) D0 [6],BW (body weight) D21 [6],TV (tumor volume) D21 [6],"Effect on tumors [6, 7]","Impact on body weight of animals [6, 7]",EC50 [3],"Impact on body weight of animals ([6]; day 21, 80 mg/kg intragastric, in words, listed as sunitinib)"
Cc1[nH]c(/C=C2\C(=O)Nc3ccc(F)cc32)c(C)c1NC(=O)[C@@H]1CCCN1 [Compound 15],1247,considerably lower than that of sunitinib,17.7 µM,0.0142 µM,0.0123 µM,92.5%,0.065 µM,–,–,–,–,–,–,–,–
Cc1[nH]c(/C=C2\C(=O)Nc3ccc(F)cc32)c(C)c1NC(=O)C1CCN(C)CC1 [Compound 5],>1085,considerably lower than that of sunitinib,> 20 µM,0.0184 µM,0.00168 µM,95.0%,0.141 µM,–,–,–,–,–,–,–,–
"Cc1[nH]c(/C=C2\C(=O)Nc3ccc(F)cc32)c(C)c1NC(=O)N1CCCCC1 [Comparative compound 1, reference compound]",430,–,5.69 µM,0.0132 µM,–,–,–,–,–,–,–,–,–,–,–
Cc1[nH]c(/C=C2\C(=O)Nc3ccc(F)cc32)c(C)c1NC(=O)C1CCNCC1 [Compound 2],>1238,considerably lower than that of sunitinib,> 20 µM,0.0161 µM,0.0047 µM,92.6%,0.29 µM,–,–,–,–,–,–,–,–
Cc1[nH]c(/C=C2\C(=O)Nc3ccc(F)cc32)c(C)c1NC(=O)[C@H]1CCCN1 [Compound 6],1316,considerably lower than that of sunitinib,17.6 µM,0.0134 µM,0.0116 µM,92.4%,0.083 µM,20.42 ± 0.20,238.25 ± 13.18,21.38 ± 0.37,0.00 ± 0.00,completely disappeared; also recorded: complete disappearance of tumors,no significant impact on the body weight; also recorded: little impact on the body weight,–,–
Cc1[nH]c(/C=C2\C(=O)Nc3ccc(F)cc32)c(C)c1NC(=O)C1CCN(C(=O)N(C)C)CC1 [Compound 3],>1456,considerably lower than that of sunitinib,> 20 µM,0.0137 µM,0.0107 µM,92.1%,0.078 µM,–,–,–,–,–,–,–,–
Cc1[nH]c(/C=C2\C(=O)Nc3ccc(F)cc32)c(C)c1NC(=O)[C@H]1CCCN1C(=O)N(C)C [Compound 8],>1762,considerably lower than that of sunitinib,> 20 µM,0.0114 µM,–,–,0.066 µM,–,–,–,–,–,–,–,–
"CCN(CC)CCNC(=O)c1c(C)[nH]c(/C=C2\C(=O)Nc3ccc(F)cc32)c1C [Sunitinib, reference compound]",–,–,4.14 µM,–,0.00394 µM,94.4%,–,19.47 ± 0.33,242.75 ± 20.58,16.02 ± 0.56,12.97 ± 2.47,–,significantly reduces the body weight,0.00773 µM,significantly reduced
Cc1[nH]c(/C=C2\C(=O)Nc3ccc(F)cc32)c(C)c1NC(=O)C1CCCN(C(=O)N(C)C)C1 (stereo not shown) [Compound 13],–,considerably lower than that of sunitinib,–,–,0.00641 µM,90.2%,0.077 µM,–,–,–,–,–,–,–,–
Cc1[nH]c(/C=C2\C(=O)Nc3ccc(F)cc32)c(C)c1NC(=O)C1CCCNC1 (stereo not shown) [Compound 12],–,–,–,–,0.00787 µM,93.1%,0.142 µM,–,–,–,–,–,–,–,–
"Cc1[nH]c(/C=C2\C(=O)Nc3ccc(F)cc32)c(C)c1NC(=O)CC1CCNCC1 [Comparative compound 3, reference compound]",550,–,8.05 µM,0.0146 µM,–,–,–,–,–,–,–,–,–,–,–
Cc1[nH]c(/C=C2\C(=O)Nc3ccc(F)cc32)c(C)c1NC(=O)C1CCCN(C(=O)N2CCCC2)C1 (stereo not shown) [Compound 14],>1534,considerably lower than that of sunitinib,> 20 µM,0.013 µM,–,–,0.143 µM,–,–,–,–,–,–,–,–
Cc1[nH]c(/C=C2\C(=O)Nc3ccc(F)cc32)c(C)c1NC(=O)C1CCCCN1 (stereo not shown) [Compound 9],–,–,–,–,0.00534 µM,94.3%,0.089 µM,–,–,–,–,–,–,–,–
"Cc1[nH]c(/C=C2\C(=O)Nc3ccc(F)cc32)c(C)c1NC(=O)N1CCCC1 [Comparative compound 2, reference compound]",567,–,6.98 µM,0.0123 µM,–,–,–,–,–,–,–,–,–,–,–
Cc1[nH]c(/C=C2\C(=O)Nc3ccc(F)cc32)c(C)c1NC(=O)C1CCN(C(=O)N2CCCC2)CC1 [Compound 11],>1436,considerably lower than that of sunitinib,> 20 µM,0.0139 µM,–,–,0.074 µM,–,–,–,–,–,–,–,–
